Measured values as given in patent US20240279220A1, “INDOLE COMPOUNDS AND METHODS OF USE” (Genzyme Corporation, priority 2021, published 2024).

Columns and labels:
NBD1/3D = experiment: Aggregation analysis using differential static light scattering (DSLS), NBD1 thermal stability; assay type: binding, Human; conditions: ΔTagg versus DMSO control; compound at 100 μM
Summary of the method: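 Purified NBD1 at 0.2 mg/ml in S200 buffer (pH 7.6, 2 mM ATP, 5 mM MgCl2, 1% glycerol) was heated with compound at 1 °C/min to 70 °C. Tagg taken from the light-scattering curve inflection point; ΔTagg = compound Tagg minus mean DMSO control Tagg.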

CFTR = molecular target: T1, CFTR (Homo sapiens, UniProt P13569, DEL508-508); experiment: TECC24 recording of CFTR-mediated transepithelial chloride transport in ΔF508 homozygous CF-HBE cells; assay type: cell-based; conditions: 10 μM test agent, 48 hours incubation, AUC of forskolin-stimulated IEQ divided by vehicle AUC, primary CF-HBE cells
T1 construct: Primary human bronchial epithelial cells from a ΔF508 homozygous CF donor; host or cells: primary human bronchial epithelial cells (CF-HBE), ΔF508 homozygous donor
Experimental: The effects of a test agent on CFTR-mediated transepithelial chloride transport was measured using TECC24 recording analysis. Test agents were solubilized in DMSO. Solubilized test agents were mixed with incubation medium containing DMEM/F12, Ultroser G (2%; Crescent Chemical, catalog #67042), Hyclone Fetal Clone II (2%; GE Healthcare, catalog #SH30066.02), bovine brain extract (0.25%; Lonza, catalog #CC-4098), insulin (2.5 μg/mL), IL-13 (10 ng/mL), hydrocortisone (20 nM), transferrin (2.5 μg/mL), triiodothyronine (500 nM), ethanolamine (250 nM), epinephrine (1.5 μM), phosphoethanolamine (250 nM), and retinoic acid (10 nM). Primary human bronchial epithelial cells from a ΔF508 homozygous CF donor (CF-HBE cells; from University of North Carolina Cystic Fibrosis Tissue Procurement Center), grown on Transwell HTS 24-well cell culture inserts (Costar, catalog #3378), were exposed to test agents or controls dissolved in incubation medium. The CF-HBE cells were cultured at 36.5° C. for 48 hours before TECC24 recordings were performed in the presence or absence of test agent, a positive control or vehicle (DMSO).
Following incubation, the transwell cell culture inserts containing the test agent or control-treated CF-HBE cells were loaded onto a TECC24 apparatus (TECC v7 or MTECC v2; EP Design) to record the transepithelial voltage (VT) and resistance (TEER) using 4 AgCl electrodes per well configured in current-clamp mode. The apical and basolateral bath solutions both contained (in mM) 140 NaCl, 5 KCl, 2 CaCl2, 1 MgCl2, 10 Hepes, and 10 glucose (adjusted to pH 7.4 with NaOH). To inhibit basal Na+ absorption, the ENaC inhibitor benzamil (10 μM) was added to the bath. Then, the adenylate cyclase activator, forskolin (10 μM), was added to the bath to activate CFTR. The forskolin-stimulated Cl— transport was halted by addition of CFTR inhibitor-172 (20 μM) to the bath at the end of the experiment to confirm specificity. VT and TEER recordings were digitally acquired at routine intervals using TECC or MTECC software (EP Design). VT and TEER were transformed into equivalent transpeithelial Cl— current (IEQ), and the Area Under the Curve (AUC) of the IEQ timecourse between forskolin and CFTR inhibitor-172 addition is generated using Excel (Microsoft). Efficacy is expressed as the ratio of the test agent AUC divided by vehicle AUC. EC50s based on AUC are generated using the non-linear regression log(agonist) vs. response function in Prism software (Graphpad) with HillSlope fixed=1.
If a test agent increased the AUC of the forskolin-stimulated IEQ relative to vehicle in CF-HBE cells, and this increase was inhibited by CFTR inhibitor-172, then the test agent was considered a CFTR corrector.

T1 sequence (P13569 with tags, fused parts or gaps DEL508-508): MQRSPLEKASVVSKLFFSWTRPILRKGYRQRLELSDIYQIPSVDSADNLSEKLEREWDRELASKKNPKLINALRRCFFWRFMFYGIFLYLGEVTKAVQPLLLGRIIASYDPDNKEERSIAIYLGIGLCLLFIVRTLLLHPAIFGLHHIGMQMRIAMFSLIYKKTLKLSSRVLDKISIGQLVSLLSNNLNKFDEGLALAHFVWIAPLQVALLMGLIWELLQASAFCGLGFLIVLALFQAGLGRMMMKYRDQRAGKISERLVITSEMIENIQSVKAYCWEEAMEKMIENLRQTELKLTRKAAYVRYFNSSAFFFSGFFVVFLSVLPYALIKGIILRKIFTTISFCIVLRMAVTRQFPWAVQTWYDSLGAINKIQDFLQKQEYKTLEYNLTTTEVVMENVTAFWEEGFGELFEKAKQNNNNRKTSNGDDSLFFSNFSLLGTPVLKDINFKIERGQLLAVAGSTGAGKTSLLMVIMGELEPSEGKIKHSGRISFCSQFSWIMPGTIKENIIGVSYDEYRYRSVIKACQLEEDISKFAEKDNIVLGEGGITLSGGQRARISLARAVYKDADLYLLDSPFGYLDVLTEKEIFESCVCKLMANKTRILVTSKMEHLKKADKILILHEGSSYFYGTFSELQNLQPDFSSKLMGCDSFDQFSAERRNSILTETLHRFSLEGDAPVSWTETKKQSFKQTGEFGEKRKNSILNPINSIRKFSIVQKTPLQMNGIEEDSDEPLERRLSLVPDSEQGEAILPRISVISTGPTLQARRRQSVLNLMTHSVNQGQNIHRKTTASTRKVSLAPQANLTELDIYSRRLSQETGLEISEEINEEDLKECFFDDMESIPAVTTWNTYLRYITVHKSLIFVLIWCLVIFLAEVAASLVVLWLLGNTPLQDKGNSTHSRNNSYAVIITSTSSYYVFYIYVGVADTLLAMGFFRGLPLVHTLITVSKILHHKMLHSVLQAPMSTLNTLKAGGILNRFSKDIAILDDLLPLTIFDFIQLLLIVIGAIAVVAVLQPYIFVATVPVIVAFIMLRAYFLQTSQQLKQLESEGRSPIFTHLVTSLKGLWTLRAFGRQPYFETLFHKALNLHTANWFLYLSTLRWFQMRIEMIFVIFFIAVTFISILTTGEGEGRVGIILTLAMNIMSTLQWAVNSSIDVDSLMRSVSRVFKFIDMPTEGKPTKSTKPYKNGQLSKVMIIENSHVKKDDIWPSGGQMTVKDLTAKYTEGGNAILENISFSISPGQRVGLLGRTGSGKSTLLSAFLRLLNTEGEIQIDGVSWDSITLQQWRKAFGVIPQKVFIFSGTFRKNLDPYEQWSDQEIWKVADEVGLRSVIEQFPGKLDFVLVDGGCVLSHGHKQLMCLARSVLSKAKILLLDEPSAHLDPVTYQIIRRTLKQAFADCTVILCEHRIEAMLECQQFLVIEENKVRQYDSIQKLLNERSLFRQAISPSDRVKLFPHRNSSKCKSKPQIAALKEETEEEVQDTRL

Row | Compound | DSLS NBD1/3D Human Stability delta-T (° C.) @ 100 (μM) (NBD1/3D) | TECC24 @ 10 μM over DMSO (AUC fold over DMSO) (CFTR)
1 | CC(c1cnc(-c2cc(Oc3c(F)cc4[nH]ccc4c3CC(F)(F)F)ccc2F)[nH]1)c1cccc(CCC(=O)O)c1F (single isomer, unassigned) [Example 128B, 3-(2-fluoro-3-(1-(2-(2-fluoro-5-((6-fluoro-4-(2,2,2-trifluoroethyl)-1H-indol-5-yl)oxy)phenyl)-1H-imidazol-5-yl)ethyl)phenyl)propanoic acid] | A (A: T ≥ 10° C.) | A (“A” refers to AUC @10 uM >= 12)
2 | CC(c1c[nH]c(-c2cc(Oc3c(F)cc4[nH]ccc4c3CC(F)F)ccc2F)n1)c1cccc(CCC(=O)O)c1F (single isomer, unassigned) [Example 129A, 3-(3-(1-(2-(5-((4-(2,2-difluoroethyl)-6-fluoro-1H-indol-5-yl)oxy)-2-fluorophenyl)-1H-imidazol-4-yl)ethyl)-2-fluorophenyl)propanoic acid] | A (A: T ≥ 10° C.) | A (“A” refers to AUC @10 uM >= 12)
3 | CC(C)OCCOCCC(c1cnc(-c2cc(Oc3c(F)cc4[nH]ccc4c3F)ccc2F)[nH]1)c1cccc(CCC(=O)O)c1F (single isomer, unassigned) [Example 130B, 3-(3-(1-(2-(5-((4,6-difluoro-1H-indol-5-yl)oxy)-2-fluorophenyl)-1H-imidazol-5-yl)-3-(2-isopropoxyethoxy)propyl)-2-fluorophenyl)propanoic acid] | A (A: T ≥ 10° C.) | A (“A” refers to AUC @10 uM >= 12)
4 | CC(c1cnc(-c2cc(Oc3c(F)cc4[nH]ccc4c3F)ccc2F)[nH]1)c1cccc(CC(=O)O)c1F (single isomer, unassigned) [Example 131A, 2-(3-(1-(2-(5-((4,6-difluoro-1H-indol-5-yl)oxy)-2-fluorophenyl)-1H-imidazol-5-yl)ethyl)-2-fluorophenyl)acetic acid] | A (A: T ≥ 10° C.) | A (“A” refers to AUC @10 uM >= 12)
5 | CC(c1cnc(-c2cc(Oc3c(F)cc4[nH]ccc4c3F)ccc2F)[nH]1)c1cc(F)cc(CCC(=O)O)c1F (single isomer, unassigned) [Example 132B, 3-(3-(1-(2-(5-((4,6-difluoro-1H-indol-5-yl)oxy)-2-fluorophenyl)-1H-imidazol-5-yl)ethyl)-2,5-difluorophenyl)propanoic acid] | A (A: T ≥ 10° C.) | A (“A” refers to AUC @10 uM >= 12)
6 | CC(c1cnc(-c2cc(Oc3c(F)cc4[nH]ccc4c3CP(C)(C)=O)ccc2F)[nH]1)c1cccc(CCC(=O)O)c1F (single isomer, unassigned) [Example 133B, 3-(3-(1-(2-(5-((4-((dimethylphosphoryl)methyl)-6-fluoro-1H-indol-5-yl)oxy)-2-fluorophenyl)-1H-imidazol-5-yl)ethyl)-2-fluorophenyl)propanoic acid] | A (A: T ≥ 10° C.) | C (“C” refers to AUC @ 10 uM <= 4)
7 | CC(c1cnc(-c2cc(Oc3c(F)cc4[nH]ccc4c3CN3CCCS3(=O)=O)ccc2F)[nH]1)c1cccc(CCC(=O)O)c1F (single isomer, unassigned) [Example 134B, 3-(3-(1-(2-(5-((4-((1,1-dioxidoisothiazolidin-2-yl)methyl)-6-fluoro-1H-indol-5-yl)oxy)-2-fluorophenyl)-1H-imidazol-5-yl)ethyl)-2-fluorophenyl)propanoic acid] | A (A: T ≥ 10° C.) | A (“A” refers to AUC @10 uM >= 12)
8 | CC(c1cnc(-c2cc(Oc3c(F)cc4[nH]ccc4c3CCP(C)(C)=O)ccc2F)[nH]1)c1cccc(CCC(=O)O)c1F (single isomer, unassigned) [Example 135A, 3-(3-(1-(2-(5-((4-(2-(dimethylphosphoryl)ethyl)-6-fluoro-1H-indol-5-yl)oxy)-2-fluorophenyl)-1H-imidazol-5-yl)ethyl)-2-fluorophenyl)propanoic acid] | A (A: T ≥ 10° C.) | C (“C” refers to AUC @ 10 uM <= 4)
